Experimental data taken from patent publication US4704462A, “Substituted 2,3,3a,6-tetrahydro-6-oxobenzofuran derivative useful as PAF antagonist” (Merck & Co., Inc., priority 1985, dated 1987).

Legend:
PAF Receptor = biological target: T1, PAF Receptor (Oryctolagus cuniculus, UniProt G1TEI7); assay: % Inhibition of PAF Receptor (published bioassay, Table I); type: binding
T1 construct: from tissue
Source text: See. T. Y. Shen et al., Proc. Nat. Acad. Sci., U.S.A., 82, 672 (1985); and S. B. Hwang et al., Biochem., 22, 4756 (1983).
% Inhibition of PAF Receptor by the Compounds of […]

man = conditions: in man, 0.1 μg per site; cited from earlier work

T1 sequence (G1TEI7 1-342): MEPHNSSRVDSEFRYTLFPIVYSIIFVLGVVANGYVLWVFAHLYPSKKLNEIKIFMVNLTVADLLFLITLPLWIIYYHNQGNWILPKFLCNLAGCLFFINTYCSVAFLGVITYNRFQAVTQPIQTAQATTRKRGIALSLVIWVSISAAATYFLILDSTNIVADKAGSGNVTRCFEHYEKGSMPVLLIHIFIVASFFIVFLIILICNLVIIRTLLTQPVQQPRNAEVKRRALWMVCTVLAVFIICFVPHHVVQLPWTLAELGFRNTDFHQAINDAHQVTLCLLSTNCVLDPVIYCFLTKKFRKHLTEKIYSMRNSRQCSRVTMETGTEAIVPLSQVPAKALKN

Compound	inhibition at 1 µM (PAF Receptor) [%]	inhibition at 5 µM (PAF Receptor) [%]	inhibition at 0.03 µM (PAF Receptor; Dose 0.03 μM) [%]	inhibition at 0.1 µM (PAF Receptor; Dose 0.1 μM) [%]	inhibition at 0.3 µM (PAF Receptor) [%]	inflammatory response to intradermal PAF (man)
CCCC1=C[C@@]2(OC)C(=CC1=O)O[C@H](c1ccc(OC)c(OC)c1)[C@@H]2C [(2S,3S,3aS)-2-(3,4-dimethoxyphenyl)-3a-methoxy-3-methyl-5-n-propyl-2,3,3a,6-tetrahydro-6-oxo-benzofuran]	83 to 89	90 to 95	30 to 33	58 to 59	73 to 76	
1-O-hexadecyl/octadecyl-2-O-acetyl-sn-glycero-3-phosphorylcholine [PAF]						biphasic inflammatory response
C=CCC1=C2OC(c3ccc(OC)c(OC)c3)C(C)C2(OC)C=CC1=O (centres unmarked)	26	57				

More lines, main results first:

inhibition at 1 µM (PAF Receptor) [%]	inhibition at 5 µM (PAF Receptor) [%]	inhibition at 0.03 µM (PAF Receptor; Dose 0.03 μM) [%]	inhibition at 0.1 µM (PAF Receptor; Dose 0.1 μM) [%]	inhibition at 0.3 µM (PAF Receptor) [%]	Compound	inflammatory response to intradermal PAF (man)
45	73				C=CCC1=C[C@]2(OCC)C(=CC1=O)O[C@H](c1ccc(OC)c(OC)c1)[C@@H]2C [(2S,3S,3aR)-5-allyl-2-(3,4-dimethoxyphenyl)-3a-ethoxy-3-methyl-2,3,3a,6-tetrahydro-6-oxo-benzofuran]	
68				42	C=CCC1=C[C@@]2(OCC)C(=CC1=O)O[C@H](c1ccc(OC)c(OC)c1)[C@@H]2C [(2S,3S,3aS)-5-allyl-2-(3,4-dimethoxyphenyl)-3a-ethoxy-3-methyl-2,3,3a,6-tetrahydro-6-oxo-benzofuran]	
31	61				CCCC1=C[C@]2(OC)C(=CC1=O)O[C@H](c1ccc(OC)c(OC)c1)[C@@H]2C (single isomer, unassigned)	
